Assay results from patent EP1206476B1, “9A-AZALIDES WITH ANTIBACTERIAL ACTIVITY” (ABBOTT LABORATORIES, priority 1999, dated 2001).

Tests used:
Assay in all cases: In vitro assay of antibacterial activity (agar dilution MIC)
Assay type in all cases: cell-based
[1] = test system: Candida albicans CCH 442; settings: code TT = Candida albicans CCH 442; BHI agar, 35-37 °C, 20 to 24 hours; unit assumed
Description: (§1) Representative compounds of the present invention were assayed in vitro for antibacterial activity as follows: Twelve petri dishes containing successive aqueous dilutions of the test compound mixed with 10 mL of sterilized Brain Heart Infusion (BHI) agar (Difco 0418-01-5) were prepared. Each plate was inoculated with 1:100 (or 1:10 for slow-growing strains, such as Micrococcus and Streptococcus) dilutions of up to 32 different microorganisms, using a Steers replicator block. The inoculated plates were incubated at 35-37 °C for 20 to 24 hours. In addition, a control plate, using BHI agar containing no test compound, was prepared and incubated at the beginning and end of each test.
(§2) An additional plate containing a compound having known susceptibility patterns for the organisms being tested and belonging to the same antibiotic class as the test compound was also prepared and incubated as a further control, as well as to provide test-to-test comparability. Erythromycin A was used for this purpose.
(§3) After incubation, each plate was visually inspected. The minimum inhibitory concentration (MIC) was defined as the lowest concentration of drug yielding no growth, a slight haze, or sparsely isolated colonies on the inoculum spot as compared to the growth control.

[2] = test system: Escherichiacoli JUHL; settings: code QQ = Escherichiacoli JUHL; BHI agar, 35-37 °C, 20 to 24 hours; unit assumed
Description: as §1, §2, §3

[3] = test system: Escherichiacoli SS; settings: code RR = Escherichiacoli SS; BHI agar, 35-37 °C, 20 to 24 hours; unit assumed
Description: as §1, §2, §3

[4] = test system: Haemophilislnfluenzae DILL AMP R; settings: code WW = Haemophilislnfluenzae DILL AMP R; BHI agar, 35-37 °C, 20 to 24 hours; unit assumed
Description: as §1, §2, §3

[5] = test system: Micrococcusluteus ATCC 4698; settings: code PP = Micrococcusluteus ATCC 4698; BHI agar, 35-37 °C, 20 to 24 hours; unit assumed
Description: as §1, §2, §3

[6] = test system: Mycobacterium smegmatis ATCC 114; settings: code UU = Mycobacterium smegmatis ATCC 114; BHI agar, 35-37 °C, 20 to 24 hours; unit assumed
Description: as §1, §2, §3

[7] = test system: Nocardia Asteroides ATCC 99700; settings: code VV = Nocardia Asteroides ATCC 99700; BHI agar, 35-37 °C, 20 to 24 hours; unit assumed
Description: as §1, §2, §3

[8] = test system: Staphylococcus aureus 1775; settings: code GG = Staphylococcus aureus 1775; BHI agar, 35-37 °C, 20 to 24 hours; unit assumed
Description: as §1, §2, §3

[9] = test system: Staphylococcus aureus A-5177; settings: code BB = Staphylococcus aureus A-5177; BHI agar, 35-37 °C, 20 to 24 hours; unit assumed
Description: as §1, §2, §3

[10] = test system: Staphylococcus aureus A-5278; settings: code CC = Staphylococcus aureus A-5278; BHI agar, 35-37 °C, 20 to 24 hours; unit assumed
Description: as §1, §2, §3

[11] = test system: Staphylococcus aureus ATCC 6538P; settings: code AA = Staphylococcus aureus ATCC 6538P; BHI agar, 35-37 °C, 20 to 24 hours; unit assumed
Description: as §1, §2, §3

[12] = test system: Staphylococcus aureus NCTC 10649M; settings: code EE = Staphylococcus aureus NCTC 10649M; BHI agar, 35-37 °C, 20 to 24 hours; unit assumed
Description: as §1, §2, §3

[13] = test system: Staphylococcus epidermidis 3519; settings: code HH = Staphylococcus epidermidis 3519; BHI agar, 35-37 °C, 20 to 24 hours; unit assumed
Description: as §1, §2, §3

[14] = test system: Streptococcus Pneumonia 5649; settings: code ZA = Streptococcus Pneumonia 5649; BHI agar, 35-37 °C, 20 to 24 hours; unit assumed
Description: as §1, §2, §3

[15] = test system: Streptococcus Pneumonia ATCC 6303; settings: code XX = Streptococcus Pneumonia ATCC 6303; BHI agar, 35-37 °C, 20 to 24 hours; unit assumed
Description: as §1, §2, §3

[16] = test system: Streptococcus Pneumonia GYR 1171; settings: code YY = Streptococcus Pneumonia GYR 1171; BHI agar, 35-37 °C, 20 to 24 hours; unit assumed
Description: as §1, §2, §3

[17] = test system: Streptococcus agalactiae CMX 508; settings: code KK = Streptococcus agalactiae CMX 508; BHI agar, 35-37 °C, 20 to 24 hours; unit assumed
Description: as §1, §2, §3

[18] = test system: Streptococcus bovis A-5169; settings: code JJ = Streptococcus bovis A-5169; BHI agar, 35-37 °C, 20 to 24 hours; unit assumed
Description: as §1, §2, §3

[19] = test system: Streptococcus pyogenes 930; settings: code MM = Streptococcus pyogenes 930; BHI agar, 35-37 °C, 20 to 24 hours; unit assumed
Description: as §1, §2, §3

[20] = test system: Streptococcus pyogenes EES61; settings: code LL = Streptococcus pyogenes EES61; BHI agar, 35-37 °C, 20 to 24 hours; unit assumed
Description: as §1, §2, §3

[21] = test system: Streptococcus pyogenes PIU 2548; settings: code NN = Streptococcus pyogenes PIU 2548; BHI agar, 35-37 °C, 20 to 24 hours; unit assumed
Description: as §1, §2, §3

[22] = test system: Streptococcus Pneumonia 5979; settings: code ZZ = Streptococcus Pneumonia 5979; BHI agar, 35-37 °C, 20 to 24 hours; unit assumed
Description: as §1
An additional plate containing a compound having known susceptibility patterns for the organisms being tested and belonging to the same antibiotic class as the test compound was also prepared and incubated as a further control, as well as to provide test-to-test comparability.
as §3

SMILES	Antibacterial Activity (MIC's) [1]	Antibacterial Activity (MIC's) [2]	Antibacterial Activity (MIC's) [3]	Antibacterial Activity (MIC's) [4]	Antibacterial Activity (MIC's) [5]	Antibacterial Activity (MIC's) [6]	Antibacterial Activity (MIC's) [7]	Antibacterial Activity (MIC's) [8]	Antibacterial Activity (MIC's) [9]	Antibacterial Activity (MIC's) [10]	Antibacterial Activity (MIC's) [11]	Antibacterial Activity (MIC's) [12]	Antibacterial Activity (MIC's) [13]	Antibacterial Activity (MIC's) [14]	Antibacterial Activity (MIC's) [15]	Antibacterial Activity (MIC's) [16]	Antibacterial Activity (MIC's) [17]	Antibacterial Activity (MIC's) [18]	Antibacterial Activity (MIC's) [19]	Antibacterial Activity (MIC's) [20]	other results
CC[C@H]1OC(=O)[C@H](C)[C@@H](O[C@H]2C[C@@](C)(OC)[C@@H](O)[C@H](C)O2)[C@H](C)[C@@H](O[C@@H]2O[C@H](C)C[C@H](N(C)C)[C@H]2O)[C@](C)(O)C[C@@H](C)C(=O)[C@H](C)[C@@H](O)[C@]1(C)O [Ery. A standard, Erythromycin A, reference compound]	> 100 µg/mL	> 100 µg/mL	0.78 µg/mL	4 µg/mL	0.2 µg/mL	3.1 µg/mL	0.1 µg/mL	> 100 µg/mL	3.1 µg/mL	> 100 µg/mL	0.2 µg/mL	0.39 µg/mL	0.39 µg/mL	16 µg/mL	0.06 µg/mL	0.06 µg/mL	0.05 µg/mL	0.02 µg/mL	> 100 µg/mL	0.05 µg/mL	Antibacterial Activity (MIC's) [21]: 6.2 µg/mL
C=CCO[C@]1(C)C[C@@H](C)CN[C@H](C)[C@@H](O)[C@](C)(O)[C@@H](CC)OC(=O)[C@H](C)[C@@H](O[C@H]2C[C@@](C)(OC)[C@@H](O)[C@H](C)O2)[C@H](C)[C@H]1O[C@@H]1O[C@H](C)C[C@H](N(C)C)[C@H]1O [Example 2]	> 100 µg/mL	50 µg/mL	0.78 µg/mL	8 µg/mL	0.39 µg/mL	6.2 µg/mL	0.1 µg/mL	> 100 µg/mL	12.5 µg/mL	> 100 µg/mL	0.2 µg/mL	0.39 µg/mL	0.2 µg/mL	16 µg/mL	0.06 µg/mL	0.06 µg/mL	0.05 µg/mL	0.02 µg/mL	> 100 µg/mL	0.05 µg/mL	Antibacterial Activity (MIC's) [21]: 6.2 µg/mL; Antibacterial Activity (MIC's) [22]: > 128 µg/mL
